# Laboratory results: paper PMC2912373, “Low-Density Lipoprotein Receptor-Related Protein 1 (LRP1) Mediates Neuronal Aβ42 Uptake and Lysosomal Trafficking” (PLoS ONE, 2010)
# System: N2a-mLRP4-Tless cells
# Assay: FAM-Aβ42 uptake in LRP1 endocytosis-deficient cells, FACS
# Type: cell-based, mouse
# Details: 500 nM, 48 h, pronase-treated and untreated cells
# From the text: To determine whether the endocytic function of LRP1 is required for Aβ42 internalization and accumulation, we first analyzed the effect of clathrin knockdown on the uptake of FAM-Aβ42 in N2a-mLRP4 cells. We decreased the expression of clathrin heavy chain by lentiviral-mediated delivery of small hairpin interfering RNA (shRNA) in N2a-mLRP4 cells and analyzed cell surface levels of mLRP4 by FACS. Lentiviral-mediated knockdown of clathrin heavy chain substantially decreases the protein levels of clathrin heavy chain and evokes a twofold-increase in the levels of cell surface mLRP4 in N2a cells (Fig. 4A), consistent with an impairment of clathrin-mediated endocytosis of this LRP1 minireceptor. […] As a control for specificity, we analyzed the uptake of a FAM-Aβ42 peptide that contained the same amino acid composition but in a scrambled sequence. […] To further confirm this, we specifically targeted the endocytic function of mLRP4 and analyzed the internalization of FAM-Aβ42 in LRP1 endocytosis-deficient cells. […]
# Figure 4 LRP1 endocytosis is required for Aβ42 uptake and accumulation in N2a cells. […] The levels of cell surface and total pools of mLRP4 were determined by flow cytometric analyses with anti-HA antibody in non-permeabilized and saponin-treated cells, respectively. The surface-to-total ratio were calculated and plotted as fold-change to control-infected cells. […]
substance,measurement,value
FAM-Aβ42: FAM-Aβ42 peptide (23526) from Anaspec; amyloid-β 42 with carboxyfluorescein at the N-terminal region,FAM-Aβ42 uptake in N2a-mLRP4-Tless compared to N2a-pcDNA3 cells,similar
